Patent US20110118239A1, “PREPARATION AND ENANTIOMERIC SEPARATION OF 7-(3-PYRIDINYL)-1,7-DIAZASPIRO[4.4]NONANE AND NOVEL SALT FORMS OF THE RACEMATE AND ENANTIOMERS” (Targacept, Inc., priority 2008, published 2011)
Read-outs that look alike come from different tables or passages of the source.

Tests used:
Rat α4β2 = Rat α4β2 (Rattus norvegicus, UniProt P09483+P12390); test: Binding to rat α4β2 NNR (Ki)
Experimental: (§1) Binding and function of the compounds to relevant receptor sites was determined in accordance with the techniques described in PCT WO 2008/057938. Inhibition constants (Ki values), reported in nM, were calculated from the IC50 values using the method of Cheng et al., Biochem. Pharmacol. 22: 3099 (1973). […] Thus, the compounds of the present invention are selective modulators of the α4β2 NNR subtype.

Human α4β2 = Human α4β2 (Homo sapiens, UniProt P17787+P43681); test: Binding to human α4β2 NNR (Ki)
Experimental: as §1

Rat α7 = Rat α7 (Rattus norvegicus, UniProt Q05941); test: Binding to rat α7 NNR (Ki)
Experimental: as §1

human α4β2 NNRs = target: T1, human α4β2 NNRs (Homo sapiens, UniProt P17787+P43681); test: Function at human α4β2 NNRs, SH-EP1/human a4b2 cells, FLIPR calcium; assay type: cell-based
T1 construct: expressed in transfected cells; host or cells: SH-EP1
Experimental: as §1
After the loading period, plates were equilibrated to room temperature and the cells exposed to the test article ([…]) or nicotine or buffer alone on a FLIPR (Molecular Devices). Fluorescence (at 485 nm) was monitored throughout the experiment. The test article change in fluorescence was compared to both a positive control (10 μM nicotine) and a negative control (buffer alone) to determine the percent response relative to that of nicotine.

Human Ganglion = Human Ganglion (Homo sapiens, UniProt P30926+P32297); test: Function at human ganglion subtype, single point 100 μM; assay type: cell-based
Experimental: as §1

Human Muscle = Human Muscle (Homo sapiens, UniProt P02708+P07510+Q07001); test: Function at human muscle subtype, single point 100 μM; assay type: cell-based
Experimental: as §1

[1] = Single rising dose (SRD) study of Compound C, plasma pharmacokinetics of racemate and enantiomers; assay type: in vivo; details: for t1/2 (mean) / Cmax / Tmax / AUC(0-inf) / half-life: plasma; for t1/2 (mean): Table 3; for Cmax / Tmax / AUC(0-inf) / half-life: human; for AUC(0-inf): read-out: AUCinf (mean)
Experimental: A single, rising dose (SRD) study was performed with Compound C (the racemate). Plasma samples were analyzed for the content of the two enantiomers, Compound A (substantially pure R), Compound B (substantially pure S). Three dose groups (Compound C) were analyzed, 50, 100, and 400 mg, and four subjects were randomly selected from the 6 subjects tested to receive active treatment in each cohort examined in the SRD study.

mice = test: Seizure induction after acute dose, mice; assay type: in vivo; details: female mice; acute oral dose of 400 mg/kg
Description: For example, preclinically, Compound C induced seizures following acute doses: […]

rats = test: Seizure/convulsion induction after acute dose, rats; assay type: in vivo
Experimental: For example, preclinically, Compound C induced seizures following acute doses:
Likewise, Compound B induced convulsion in 1/6 male rats following an acute oral dose of 300 mg/kg.
In fact, the effect of Compound A was not statistically different from the vehicle control.

nicotinic = test: Standard receptor screen at 10 μM: nicotinic; assay type: binding; details: hydrochloride salt
Experimental: (§2) Both Compound A, (R)-7-(3-pyridinyl)-1,7-diazaspiro[4.4]nonane, and Compound B, (S)-7-(3-pyridinyl)-1,7-diazaspiro[4.4]nonane, each as their hydrochloride salts, were screened, at 10 μM concentration, against a standard set of receptors. […] Thus, the two stereoisomers differentiate from one another in terms of their non-nicotinic receptor binding characteristics. This differentiation is believed to translate into a differentiation between the ability of each of (R)-7-(3-pyridinyl)-1,7-diazaspiro[4.4]nonane and (S)-7-(3-pyridinyl)-1,7-diazaspiro[4.4]nonane to treat various disease states, including, for example, the ability of Compound A to enhance desensitization of α4β2 NNRs.

histamine H1 = histamine H1 (Homo sapiens, UniProt P35367); test: Standard receptor screen at 10 μM: histamine H1; assay type: binding; details: hydrochloride salt, read-out: inhibition at histamine H1 receptors
Experimental: as §2

rat = test: Anxiety model, elevated plus maze (EPM); assay type: in vivo; details: 0.02, 0.06, and 0.21 mg/kg i.p. 30 minutes before the test, FIG. 1
Description: The method, which detects anxiolytic activity, follows that described by Handley S. L. and Mithani S., Effects of alpha-adrenoceptor agonists and antagonists in a maze-exploration model of fear-motivated behaviour, Naunyn-Schmied. Arch. Pharmacol., 327, 1-5, 1984.
Rodents avoid open spaces (the open arms of an elevated plus-maze). Anxiolytics increase exploratory activity in the open arms. The maze consisted of 4 arms of equal length and width arranged in the form of a plus sign (+). Two opposite arms were enclosed by walls (closed arms). The two other arms had no walls (open arms). The maze was raised above the floor. A rat was placed in the centre of the plus-maze and left to explore for 5 minutes. The number of entries into the open and closed arms and the time spent in the open arms were recorded.
Ten (10) rats were studied per group. The test was performed blind. Compound A was evaluated at 0.02, 0.06, and 0.21 mg/kg, administered i.p. 30 minutes before the test, and compared with a vehicle control group. Clobazam, administered under the same experimental conditions, was used as reference substance. The experiment therefore included […].
Data were analyzed by comparing the treated groups with the control group using unpaired tests.

A/J mice = test: Depression model, tail suspension (TS); assay type: in vivo; details: 0.1 mg/kg (p-hydroxybenzoate), 10 min test
Experimental: On the day of the test, A/J mice were brought to acclimate to the testing room for one hour. Eight animals were tested in each run. Following pretreatment with vehicle, desipramine (20 mg/kg) or Compound A, p-hydroxybenzoate (0.1, 0.3, and 1 mg/kg), a piece of transparent (Scotch) tape was attached to the tail of each mouse from about mid-tail with approximately 2 cm of tape past the end of the tail. The mice were then placed in the tail suspension chambers (white polyvinylchloride cubicles measuring 33×33×31.75 cm; Med Associates Inc., St Albans, Vt.). The mice were suspended from the hook of the TS force transducer via the tail tape. The force transducer transmitted the movements of the mouse to a recording device connected to a computer. Immobility time, struggle time, and intensity were automatically recorded for each min during the 10 min test period. Upon completion of the TS test, the mice were returned to their home cage and then to the animal colony. The TS chambers were cleaned between sessions. Data were analyzed by repeated measures and one-way analysis of variance (ANOVA) followed by Fisher PLSD post-hoc comparisons. An effect was considered significant if p<0.05.

[2] = tested on: animal models of depression and anxiety; test: Validated animal models of depression and anxiety (summary statement); details: in vivo
[3] = SH-EP1/human a4b2 cells, FLIPR calcium, relative to 10 μM nicotine, read-out: Human α4β2 Emax (% of nic resp)
[4] = po, 50 mg Compound C (n = 4), read-out: Mean (SD) Terminal Elimination Half-life (converted)
[5] = po, 100 mg Compound C (n = 4), read-out: Mean (SD) Terminal Elimination Half-life (converted)
[6] = po, 400 mg Compound C (n = 4), read-out: Mean (SD) Terminal Elimination Half-life (converted)

T1 sequence (P43681 29-627 limits assumed): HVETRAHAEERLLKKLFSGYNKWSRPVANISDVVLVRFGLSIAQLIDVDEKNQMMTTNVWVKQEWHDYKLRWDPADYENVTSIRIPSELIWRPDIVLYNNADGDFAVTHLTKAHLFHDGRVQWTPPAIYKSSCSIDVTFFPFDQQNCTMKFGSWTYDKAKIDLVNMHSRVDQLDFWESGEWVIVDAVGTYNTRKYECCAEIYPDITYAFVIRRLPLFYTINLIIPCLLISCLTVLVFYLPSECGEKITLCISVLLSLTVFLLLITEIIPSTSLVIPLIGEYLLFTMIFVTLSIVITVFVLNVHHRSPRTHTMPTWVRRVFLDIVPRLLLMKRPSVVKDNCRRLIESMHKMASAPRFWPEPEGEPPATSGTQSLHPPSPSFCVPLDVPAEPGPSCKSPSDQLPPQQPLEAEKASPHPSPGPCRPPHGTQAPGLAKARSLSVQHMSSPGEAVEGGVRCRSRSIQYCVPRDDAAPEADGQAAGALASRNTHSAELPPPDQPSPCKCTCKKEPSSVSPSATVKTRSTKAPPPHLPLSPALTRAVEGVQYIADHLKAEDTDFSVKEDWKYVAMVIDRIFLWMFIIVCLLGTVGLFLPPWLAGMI
T1 sequence (P17787 26-502): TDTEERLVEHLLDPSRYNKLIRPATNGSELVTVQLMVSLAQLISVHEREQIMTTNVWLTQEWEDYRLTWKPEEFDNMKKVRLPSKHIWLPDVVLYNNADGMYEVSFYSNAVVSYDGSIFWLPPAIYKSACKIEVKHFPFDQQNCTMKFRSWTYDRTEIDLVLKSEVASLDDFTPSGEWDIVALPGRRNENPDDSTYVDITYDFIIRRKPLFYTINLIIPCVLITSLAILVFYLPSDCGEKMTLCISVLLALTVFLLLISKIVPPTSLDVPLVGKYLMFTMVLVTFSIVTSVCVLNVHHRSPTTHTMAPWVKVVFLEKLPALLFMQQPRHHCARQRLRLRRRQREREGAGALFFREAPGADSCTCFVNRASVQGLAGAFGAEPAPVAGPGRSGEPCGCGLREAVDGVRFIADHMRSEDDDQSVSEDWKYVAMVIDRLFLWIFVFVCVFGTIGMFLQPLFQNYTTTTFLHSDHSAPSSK
Chain of Rat α7 (Q05941 23-502): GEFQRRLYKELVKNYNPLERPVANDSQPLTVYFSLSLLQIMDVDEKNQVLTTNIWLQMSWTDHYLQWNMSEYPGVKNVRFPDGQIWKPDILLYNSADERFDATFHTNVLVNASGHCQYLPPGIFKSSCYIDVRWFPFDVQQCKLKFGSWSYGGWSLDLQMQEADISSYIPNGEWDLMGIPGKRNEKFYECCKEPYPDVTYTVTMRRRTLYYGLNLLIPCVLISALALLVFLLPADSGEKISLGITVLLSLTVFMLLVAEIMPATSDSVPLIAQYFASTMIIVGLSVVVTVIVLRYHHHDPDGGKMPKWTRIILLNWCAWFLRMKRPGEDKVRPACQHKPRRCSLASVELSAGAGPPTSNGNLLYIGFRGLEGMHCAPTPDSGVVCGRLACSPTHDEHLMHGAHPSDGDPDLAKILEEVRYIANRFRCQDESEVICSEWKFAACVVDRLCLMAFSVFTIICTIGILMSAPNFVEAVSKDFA
Chain of Human Muscle (P02708 21-457): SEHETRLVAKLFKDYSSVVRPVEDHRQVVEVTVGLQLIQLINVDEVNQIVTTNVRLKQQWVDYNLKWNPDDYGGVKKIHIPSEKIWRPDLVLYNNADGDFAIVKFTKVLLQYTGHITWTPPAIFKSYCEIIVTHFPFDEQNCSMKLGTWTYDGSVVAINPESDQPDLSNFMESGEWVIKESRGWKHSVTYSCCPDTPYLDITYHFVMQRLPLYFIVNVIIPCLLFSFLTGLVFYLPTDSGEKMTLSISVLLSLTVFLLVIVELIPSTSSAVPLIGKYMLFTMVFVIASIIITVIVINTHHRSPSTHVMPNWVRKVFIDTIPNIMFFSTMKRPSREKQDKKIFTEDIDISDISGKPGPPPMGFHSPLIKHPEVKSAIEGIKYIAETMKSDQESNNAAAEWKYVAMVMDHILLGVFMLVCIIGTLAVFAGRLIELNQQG
Chain of Human Muscle (P11230 24-501 partner): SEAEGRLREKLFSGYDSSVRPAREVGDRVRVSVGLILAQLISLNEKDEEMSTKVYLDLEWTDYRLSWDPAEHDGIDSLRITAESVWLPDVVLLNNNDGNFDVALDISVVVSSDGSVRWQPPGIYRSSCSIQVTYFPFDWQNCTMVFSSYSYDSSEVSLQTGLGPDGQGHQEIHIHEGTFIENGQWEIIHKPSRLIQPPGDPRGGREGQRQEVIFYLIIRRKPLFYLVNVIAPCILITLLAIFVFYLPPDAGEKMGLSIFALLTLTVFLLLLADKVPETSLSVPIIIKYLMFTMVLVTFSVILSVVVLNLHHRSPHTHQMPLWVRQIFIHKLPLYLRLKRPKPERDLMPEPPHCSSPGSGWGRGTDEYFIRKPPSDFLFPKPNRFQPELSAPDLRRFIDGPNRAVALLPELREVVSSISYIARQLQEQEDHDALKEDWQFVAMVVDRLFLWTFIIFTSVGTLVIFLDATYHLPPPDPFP
Chain of Human Muscle (P07510 23-517): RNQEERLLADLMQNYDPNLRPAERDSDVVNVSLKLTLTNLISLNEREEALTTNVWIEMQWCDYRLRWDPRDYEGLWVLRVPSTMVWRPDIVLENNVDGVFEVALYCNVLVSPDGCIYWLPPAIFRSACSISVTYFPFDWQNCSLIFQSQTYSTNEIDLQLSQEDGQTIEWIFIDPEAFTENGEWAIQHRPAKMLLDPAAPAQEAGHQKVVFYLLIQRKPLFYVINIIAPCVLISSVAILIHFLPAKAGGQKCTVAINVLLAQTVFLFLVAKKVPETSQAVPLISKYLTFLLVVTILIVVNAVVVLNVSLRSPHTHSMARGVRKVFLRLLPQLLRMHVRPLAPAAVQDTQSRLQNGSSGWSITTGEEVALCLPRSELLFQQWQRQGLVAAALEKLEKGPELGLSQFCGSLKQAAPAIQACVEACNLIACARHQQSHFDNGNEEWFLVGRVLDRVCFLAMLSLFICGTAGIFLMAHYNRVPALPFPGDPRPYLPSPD
Chain of Human Muscle (Q07001 22-517): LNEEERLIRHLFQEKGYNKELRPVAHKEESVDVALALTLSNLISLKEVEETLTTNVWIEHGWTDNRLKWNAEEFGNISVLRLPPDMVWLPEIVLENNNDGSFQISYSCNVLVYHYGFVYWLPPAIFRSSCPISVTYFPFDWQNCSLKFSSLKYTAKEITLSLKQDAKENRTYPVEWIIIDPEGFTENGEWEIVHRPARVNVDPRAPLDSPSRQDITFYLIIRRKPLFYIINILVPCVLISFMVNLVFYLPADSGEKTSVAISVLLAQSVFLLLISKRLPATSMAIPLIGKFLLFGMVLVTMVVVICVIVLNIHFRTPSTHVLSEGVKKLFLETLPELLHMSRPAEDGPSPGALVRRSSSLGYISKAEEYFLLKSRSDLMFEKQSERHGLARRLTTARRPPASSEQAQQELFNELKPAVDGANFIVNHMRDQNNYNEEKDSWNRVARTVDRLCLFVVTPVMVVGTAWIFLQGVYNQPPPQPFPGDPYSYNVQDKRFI
Chain of Rat α4β2 (P09483 31-630): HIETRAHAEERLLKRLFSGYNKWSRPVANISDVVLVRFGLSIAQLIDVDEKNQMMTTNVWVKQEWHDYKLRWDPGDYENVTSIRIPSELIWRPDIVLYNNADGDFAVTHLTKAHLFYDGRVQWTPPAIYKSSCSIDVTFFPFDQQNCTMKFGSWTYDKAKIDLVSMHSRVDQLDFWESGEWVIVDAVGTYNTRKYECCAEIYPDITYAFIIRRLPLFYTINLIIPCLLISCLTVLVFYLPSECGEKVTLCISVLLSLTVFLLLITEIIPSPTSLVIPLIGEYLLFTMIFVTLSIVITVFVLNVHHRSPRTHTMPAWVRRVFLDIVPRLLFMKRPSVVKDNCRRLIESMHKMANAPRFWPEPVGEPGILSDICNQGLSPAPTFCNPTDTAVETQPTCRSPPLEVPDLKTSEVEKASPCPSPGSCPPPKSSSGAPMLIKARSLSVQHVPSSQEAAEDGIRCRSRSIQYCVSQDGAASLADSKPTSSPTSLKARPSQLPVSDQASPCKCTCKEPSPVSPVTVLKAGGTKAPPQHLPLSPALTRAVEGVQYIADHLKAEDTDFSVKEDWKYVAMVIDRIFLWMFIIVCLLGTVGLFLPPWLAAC
Chain of Rat α4β2 (P12390 25-500): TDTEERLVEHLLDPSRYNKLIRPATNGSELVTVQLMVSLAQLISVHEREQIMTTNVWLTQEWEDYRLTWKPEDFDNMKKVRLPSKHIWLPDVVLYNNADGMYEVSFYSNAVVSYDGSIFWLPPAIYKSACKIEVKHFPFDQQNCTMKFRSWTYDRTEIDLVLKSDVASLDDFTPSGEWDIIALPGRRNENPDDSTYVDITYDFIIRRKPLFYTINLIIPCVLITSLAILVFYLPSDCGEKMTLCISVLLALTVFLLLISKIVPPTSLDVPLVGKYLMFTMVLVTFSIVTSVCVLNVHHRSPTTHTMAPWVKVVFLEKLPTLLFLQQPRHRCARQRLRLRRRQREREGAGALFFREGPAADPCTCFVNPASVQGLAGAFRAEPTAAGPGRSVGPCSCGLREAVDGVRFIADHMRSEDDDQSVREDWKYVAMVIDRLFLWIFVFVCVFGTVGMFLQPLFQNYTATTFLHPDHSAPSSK
Chain of Human α4β2 (P43681 29-627 limits assumed): as the sequence (P43681 29-627 limits assumed) above
Chain of Human α4β2 (P17787 26-502): as the sequence (P17787 26-502) above

Which Ki (Rat α4β2) does the source give for `c1cncc(N2CCC3(CCCN3)C2)c1` (racemic) [Compound C, 7-(3-pyridinyl)-1,7-diazaspiro[4.4]nonane] here?
Its Ki is 68 nM.

And the Ki (Human α4β2)?
Its Ki is 34 nM.

What about the Ki (Rat α7) of the same molecule?
The Ki was greater than 10000 nM.

And the EC50 (human α4β2 NNRs; SH-EP1/human a4b2 cells, FLIPR calcium, read-out: Human α4β2 EC50)?
Its EC50 is 9100 nM.

And the Emax (human α4β2 NNRs; [3])?
Its Emax is 43%.

And the “Human Ganglion SP (100 μM)” value (Human Ganglion)?
The value was 15.

What about the “Human Muscle SP (100 μM)” value (Human Muscle) of the same molecule?
Its value is 22.

And the “t1/2 (mean)” value ([1]; 50 mg Compound C (n = 4))?
The value was 24.8 h.

And the “t1/2 (mean)” value ([1]; 100 mg Compound C (n = 4))?
Its value is 21.1 h.

What about the “t1/2 (mean)” value ([1]; 400 mg Compound C (n = 4)) of the same molecule?
The value was 18.5 h.

What about the Cmax ([1]; po, 50 mg Compound C (n = 4)) of the same molecule?
Its Cmax is 21.8 ng/mL.

What about the Tmax ([1]; po, 50 mg Compound C (n = 4)) of the same molecule?
The Tmax was 4.38 h.

And the AUC(0-inf) ([1]; po, 50 mg Compound C (n = 4))?
The AUC(0-inf) was 473 ng·h/mL.

And the half-life [1, 4]?
Its half-life is 24.8 h.

And the Cmax ([1]; po, 100 mg Compound C (n = 4))?
The Cmax was 44.7 ng/mL.

And the Tmax ([1]; po, 100 mg Compound C (n = 4))?
Its Tmax is 31.1 h.

And the AUC(0-inf) ([1]; po, 100 mg Compound C (n = 4))?
Its AUC(0-inf) is 741 ng·h/mL.

What about the half-life [1, 5] of the same molecule?
The half-life was 21.1 h.

And the Cmax ([1]; po, 400 mg Compound C (n = 4))?
The Cmax was 295 ng/mL.

What about the Tmax ([1]; po, 400 mg Compound C (n = 4)) of the same molecule?
The Tmax was 2 h.

What about the AUC(0-inf) ([1]; po, 400 mg Compound C (n = 4)) of the same molecule?
Its AUC(0-inf) is 3680 ng·h/mL.

What about the half-life [1, 6] of the same molecule?
Its half-life is 18.5 h.

And the “induced seizures (animals affected)” value (mice)?
The value was 1/5 female mice.

What about the “induced seizures (animals affected)” value (rats; female rats, acute IV dose of 100 mg/kg) of the same molecule?
Its value is 4/5 female rats.

What about the “induced seizures (animals affected)” value (rats; female rats, acute oral dose of 200 mg/kg) of the same molecule?
Its value is 1/5 female rats.

What about the “induced seizures (animals affected)” value (rats; female rats, acute oral dose of 800 mg/kg) of the same molecule?
Its value is 1/5 female rats.

What about the “induced seizures (animals affected)” value (rats; male rats, acute IV dose of 100 mg/kg) of the same molecule?
Its value is 1/5 male rats.

And the “induced seizures (animals affected)” value (rats; male rats, acute oral dose of 800 mg/kg)?
Its value is 1/5 male rats.

Which results are given for `c1cncc(N2CC[C@]3(CCCN3)C2)c1` [Compound A, (R)-7-(3-pyridinyl)-1,7-diazaspiro[4.4]nonane]?
Ki (Rat α4β2; read-out: Rat α4β2 Ki): 74 nM; Ki (Human α4β2; read-out: Human α4β2 Ki): 40 nM; Ki (Rat α7; read-out: Rat α7 Ki): 5400 nM; Emax (human α4β2 NNRs; [3]): 9%; Emax (human α4β2 NNRs; SH-EP1, read-out: Emax at human α4β2 NNRs): 9%; EC50 (human α4β2 NNRs; read-out: EC50 at human α4β2 NNRs): 84000 nM; Human Ganglion SP (100 μM) (Human Ganglion): 3; Human Muscle SP (100 μM) (Human Muscle): 6; inhibition at nicotinic receptors (nicotinic): 99 % inhibition; inhibition at 10 µM (histamine H1): 66%; Activity in the EPM (rat): anxiolytic-like activity; struggle intensity compared to saline (A/J mice): increased struggle intensity; total time immobile compared to saline (A/J mice): decreased total time immobile; Efficacy in multiple validated animal models of depression and anxiety [2]: demonstrated efficacy; t1/2 (mean) ([1]; 50 mg Compound C (n = 4)): 27.5 h; t1/2 (mean) ([1]; 100 mg Compound C (n = 4)): 23.7 h; t1/2 (mean) ([1]; 400 mg Compound C (n = 4)): 22.4 h; half-life ([1]; oral, after Compound C 50, 100, 400 mg, read-out: terminal elimination half-life longer than that of Compound B (converted)): ~6 h; Cmax ([1]; po, 50 mg Compound C (n = 4)): 10.3 ng/mL; Tmax ([1]; po, 50 mg Compound C (n = 4)): 4.38 h; AUC(0-inf) ([1]; po, 50 mg Compound C (n = 4)): 256 ng·h/mL; half-life [1, 4]: 27.5 h; Cmax ([1]; po, 100 mg Compound C (n = 4)): 22.7 ng/mL; Tmax ([1]; po, 100 mg Compound C (n = 4)): 3.25 h; AUC(0-inf) ([1]; po, 100 mg Compound C (n = 4)): 451 ng·h/mL; half-life [1, 5]: 23.7 h; Cmax ([1]; po, 400 mg Compound C (n = 4)): 163 ng/mL; Tmax ([1]; po, 400 mg Compound C (n = 4)): 2 h; AUC(0-inf) ([1]; po, 400 mg Compound C (n = 4)): 2420 ng·h/mL; half-life [1, 6]: 22.4 h; share of total exposure (Cmax and AUCinf) compared to the racemate, Compound C ([1]; oral administration of Compound C): approximately half; effect on seizure induction (rats; under the same conditions (as Compound B: acute oral dose of 300 mg/kg, male rats)): no effect on seizure induction
